From BindingDB's records for doi:10.1021/jm00145a024 (1985)
pKi: −log10 of the molar value.

Experiment: Inhibitory binding constant in guinea pig brain homogenate was reported at Opioid receptor delta 1 at a temperature 25 degree Celsius labeled with [3H](D-Ala2-D-Leu5)-enkephalin (0.7 nM)

## O=C1c2ccc(O)c3c2C24CCN(CC5CC5)C1[C@]2(O)CCC(=O)[C@@H]4O3 (stereo partly specified)
  pKi: 6.55
